In US12421225B2, “Heteroaromatic amide derivative and medicament containing the same” (KAKEN PHARMACEUTICAL CO., LTD., priority 2018, dated 2025):

Target: human Nav1.7 (Homo sapiens (Human), UniProt Q15858)
Test: Human Nav1.7 inhibitory activity evaluation (automated patch clamp QPatch16X, HEK293A cells stably expressing human Nav1.7 and human Navβ1)
Format: cell-based
Conditions: HEK293A cells stably expressing human Nav1.7 and human Navβ1, automated patch clamp QPatch16X
In short: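 IC50 calculated from the concentration-response of inward current evoked by the second −10 mV, 50 ms depolarisation, which follows a 15 s conditioning step at roughly 30-40% inactivation and a 100 ms −120 mV interval. Cells: HEK293A expressing human Nav1.7/Navβ1, automated patch clamp, room temperature, 0.1% DMSO final.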

Sequence of human Nav1.7 (Q15858 whole entry): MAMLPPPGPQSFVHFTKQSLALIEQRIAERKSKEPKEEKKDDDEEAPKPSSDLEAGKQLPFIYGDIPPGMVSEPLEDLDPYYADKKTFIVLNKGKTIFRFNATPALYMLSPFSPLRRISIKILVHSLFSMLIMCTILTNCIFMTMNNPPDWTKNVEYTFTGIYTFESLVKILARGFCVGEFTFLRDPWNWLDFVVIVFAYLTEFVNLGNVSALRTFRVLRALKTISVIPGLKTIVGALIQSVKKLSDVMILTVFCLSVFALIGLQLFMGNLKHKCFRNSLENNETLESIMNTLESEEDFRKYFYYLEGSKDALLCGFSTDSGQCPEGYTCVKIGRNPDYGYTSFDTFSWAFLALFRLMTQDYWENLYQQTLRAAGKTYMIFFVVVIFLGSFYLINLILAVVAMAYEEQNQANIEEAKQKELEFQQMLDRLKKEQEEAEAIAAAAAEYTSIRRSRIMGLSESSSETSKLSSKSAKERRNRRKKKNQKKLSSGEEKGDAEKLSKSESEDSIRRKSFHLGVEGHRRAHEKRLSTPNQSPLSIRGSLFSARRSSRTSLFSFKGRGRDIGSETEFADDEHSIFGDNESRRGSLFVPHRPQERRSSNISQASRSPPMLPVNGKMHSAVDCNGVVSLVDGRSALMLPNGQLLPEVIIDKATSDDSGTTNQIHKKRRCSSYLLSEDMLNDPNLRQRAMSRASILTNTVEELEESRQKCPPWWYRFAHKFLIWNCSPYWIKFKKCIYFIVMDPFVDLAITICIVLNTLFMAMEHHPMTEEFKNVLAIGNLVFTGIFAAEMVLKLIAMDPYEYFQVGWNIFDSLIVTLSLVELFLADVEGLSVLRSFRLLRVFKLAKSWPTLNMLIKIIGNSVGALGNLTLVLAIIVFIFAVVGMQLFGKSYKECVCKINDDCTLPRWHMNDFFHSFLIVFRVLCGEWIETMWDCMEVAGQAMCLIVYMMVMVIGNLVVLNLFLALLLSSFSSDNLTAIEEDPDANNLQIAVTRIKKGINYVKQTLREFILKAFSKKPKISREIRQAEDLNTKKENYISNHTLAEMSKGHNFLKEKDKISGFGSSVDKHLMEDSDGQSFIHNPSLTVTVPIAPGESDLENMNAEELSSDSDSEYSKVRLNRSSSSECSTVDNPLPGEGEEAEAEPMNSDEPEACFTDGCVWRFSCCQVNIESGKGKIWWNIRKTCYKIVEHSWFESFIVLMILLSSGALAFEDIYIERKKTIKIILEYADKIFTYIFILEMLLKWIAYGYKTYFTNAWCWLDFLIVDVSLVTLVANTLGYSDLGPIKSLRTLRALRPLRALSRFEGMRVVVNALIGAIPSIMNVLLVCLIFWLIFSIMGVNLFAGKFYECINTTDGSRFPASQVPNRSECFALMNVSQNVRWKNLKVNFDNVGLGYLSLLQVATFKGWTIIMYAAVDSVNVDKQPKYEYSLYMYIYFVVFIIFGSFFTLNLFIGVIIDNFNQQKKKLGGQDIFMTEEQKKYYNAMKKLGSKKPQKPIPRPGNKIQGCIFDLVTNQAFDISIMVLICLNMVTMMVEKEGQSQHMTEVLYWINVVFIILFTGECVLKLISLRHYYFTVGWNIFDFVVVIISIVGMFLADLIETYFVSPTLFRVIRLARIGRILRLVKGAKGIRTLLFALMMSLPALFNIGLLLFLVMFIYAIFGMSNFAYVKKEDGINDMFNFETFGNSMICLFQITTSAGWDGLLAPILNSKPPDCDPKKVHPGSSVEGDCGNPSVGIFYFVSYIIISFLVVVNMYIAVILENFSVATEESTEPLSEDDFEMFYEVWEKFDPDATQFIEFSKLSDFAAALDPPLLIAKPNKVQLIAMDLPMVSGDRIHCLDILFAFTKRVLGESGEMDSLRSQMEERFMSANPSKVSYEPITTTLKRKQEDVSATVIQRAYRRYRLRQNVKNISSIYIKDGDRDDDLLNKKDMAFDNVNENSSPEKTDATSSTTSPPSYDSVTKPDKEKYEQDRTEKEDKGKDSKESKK
Sequence of human Nav1.7 (Q07699 19-218 partner): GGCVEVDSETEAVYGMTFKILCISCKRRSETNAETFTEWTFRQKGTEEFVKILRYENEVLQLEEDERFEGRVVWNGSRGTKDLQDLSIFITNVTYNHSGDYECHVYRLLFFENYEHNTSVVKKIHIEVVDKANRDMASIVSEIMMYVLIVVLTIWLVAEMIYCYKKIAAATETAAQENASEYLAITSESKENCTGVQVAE

`N#Cc1ccc2c(c1)C[C@@H](NC(=O)c1cc3n(n1)CCC(COCc1ccccc1)O3)CO2` (stereo partly drawn) [Example 99] and `CCC1CCn2nc(C(=O)N[C@H]3COc4ccc(-c5cnc(OC)nc5)cc4C3)cc2O1` (stereo partly drawn) [Example 93] cannot be ordered by IC50: under 1 µM for the first, under 1 µM for the second.

Same assay, conditions: human Nav1.7, automated patch clamp

`O=C(N[C@H]1COc2ccc(COCC(F)(F)F)cc2C1)c1cc2n(n1)CCC(OCC(F)(F)F)CO2` (stereo partly drawn) [Example 482] and `O=C(N[C@H]1COc2ccc(CC(F)(F)F)cc2C1)c1cc2n(n1)CCC(COCC(F)(F)F)O2` (stereo partly drawn) [Example 441] cannot be ordered by IC50: under 1 µM for the first, under 1 µM for the second.

`COc1cccc(-c2c(C(=O)N[C@H]3COc4ccc(C(F)(F)F)cc4C3)nn3c2COCC3)n1` [Example 484] and `O=C(N[C@H]1COc2ccc(C(F)(F)F)cc2C1)c1nn2c(c1-c1cccc(F)n1)COCC2` [Example 513] cannot be ordered by IC50: under 1 µM for the first, under 1 µM for the second.

`O=C(N[C@H]1COc2ccc(CCOC(F)(F)F)cc2C1)c1cc2n(n1)CC(CCN1CC(F)(F)C1)O2` (single isomer, unassigned) [240 (isomer B)] and `O=C(N[C@H]1COc2ccc(CC(F)(F)F)cc2C1)c1cc2n(n1)CC(COCC(F)(F)F)O2` (single isomer, unassigned) [192 (isomer B)] cannot be ordered by IC50: under 10 µM for the first, under 1 µM for the second.

`N#Cc1ccc2c(c1)C[C@@H](NC(=O)c1cc3n(n1)CCN(CC1CCC1)C3)CO2` [Example 498] and `CC(C)CN1CCn2nc(C(=O)N[C@H]3COc4ccc(C#N)cc4C3)cc2C1` [Example 270] cannot be ordered by IC50: under 1 µM for the first, under 10 µM for the second.

`O=C(N[C@H]1COc2ccc(COCC(F)(F)F)cc2C1)c1cc2n(n1)CCC(CC1CCOCC1)O2` (stereo partly drawn) [Example 655] and `O=C(N[C@H]1COc2ccc(COCC(F)(F)F)cc2C1)c1cc2n(n1)CCC(C1CCCO1)O2` (stereo partly drawn) [Example 651] cannot be ordered by IC50: under 1 µM for the first, under 1 µM for the second.

`CN1Cc2nc(C(=O)N3CC(Oc4cccc(C(F)(F)F)n4)C3)cn2CC1c1ccccc1` (stereo not drawn) [Example 330] and `O=C(c1cn2c(n1)CCC(c1cccc(N3CC(O)C3)n1)C2)N1CCC(c2ccccc2)C1` (stereo not drawn) [Example 309] cannot be ordered by IC50: under 10 µM for the first, under 10 µM for the second.

`CCC1(O)c2cc(C(F)(F)F)ccc2OC[C@@H]1NC(=O)c1cc2n(n1)CCC(C(F)F)O2` (stereo partly drawn) [Example 544] and `O=C(N[C@H]1COc2ccc(C(F)(F)F)cc2C1O)c1cc2n(n1)CCC(C(F)F)O2` (single isomer, unassigned) [534 (isomer A)] cannot be ordered by IC50: under 10 µM for the first, under 10 µM for the second.

`O=C(N[C@H]1COc2ccc(Cl)cc2C1)c1cc2n(n1)CCC1(CCOCC1)O2` [Example 416] and `C=C1CCn2nc(C(=O)N[C@H]3COc4ccc(Cl)cc4C3)cc2O1` [Example 379] cannot be ordered by IC50: under 10 µM for the first, under 1 µM for the second.

`Cc1cnc(-c2ccc3c(c2)C[C@@H](NC(=O)c2cc4n(n2)CC(CCOC2CCC2)O4)CO3)cn1` (stereo partly drawn) [Example 475] and `O=C(N[C@H]1COc2ccc(Cl)cc2C1)c1cc2n(n1)CC(COCC1CC1)O2` (stereo partly drawn) [Example 469] cannot be ordered by IC50: under 1 µM for the first, under 1 µM for the second.

`COc1cccc(-c2c(C(=O)N[C@H]3COc4ccc(C(F)(F)F)cc4C3O)nn3c2COCC3)n1` (stereo partly drawn) [Example 529] and `Cc1cccc(-c2c(C(=O)N[C@H]3COc4ccc(C(F)(F)F)cc4C3O)nn3c2COCC3)n1` (stereo partly drawn) [Example 580] cannot be ordered by IC50: under 1 µM for the first, under 1 µM for the second.

`N#Cc1c(C(=O)N[C@H]2COc3ccccc3C2)nc2n1CC(C(F)(F)F)CC2` (stereo partly drawn) [Example 300] and `C=Cc1c(C(=O)N[C@H]2COc3ccccc3C2)nc2n1CC(C(F)(F)F)CC2` (stereo partly drawn) [Example 302] cannot be ordered by IC50: under 10 µM for the first, under 10 µM for the second.

`CC1CCn2nc(C(=O)N[C@H]3COc4ccc(Cl)cc4C3)c(-c3ccccc3)c2O1` (stereo partly drawn) [Example 444] and `O=C(N[C@H]1COc2ccc(Cl)cc2C1)c1nn2c(c1-c1ccccn1)COCC2` [Example 515] cannot be ordered by IC50: under 1 µM for the first, under 1 µM for the second.

`CCC1CCn2nc(C(=O)N[C@H]3COc4ccc(C(F)(F)F)cc4C3O)cc2O1` (stereo partly drawn) [Example 599] and `O=C(N[C@H]1COc2ccc(C(F)(F)F)cc2C1O)c1cc2n(n1)CC(CCOCC1CC1)O2` (stereo partly drawn) [Example 595] cannot be ordered by IC50: under 1 µM for the first, under 1 µM for the second.

`O=C(N[C@H]1COc2ccc(COCC(F)(F)F)cc2C1)c1cc2n(n1)CCN(CCOCC(F)(F)F)C2` [Example 667] and `N#Cc1ccc2c(c1)C[C@@H](NC(=O)c1cc3n(n1)CCN(C1(CC(F)(F)F)CC1)C3)CO2` [Example 503] cannot be ordered by IC50: under 1 µM for the first, under 10 µM for the second.

`O=C(N[C@H]1COc2ccc(COC3CCC3)cc2C1)c1cc2n(n1)CCC(C(F)(F)F)O2` (stereo partly drawn) [Example 399] and `C=Cc1ccc2c(c1)C[C@@H](NC(=O)c1cc3n(n1)CCC(C(F)(F)F)O3)CO2` (stereo partly drawn) [Example 396] cannot be ordered by IC50: under 1 µM for the first, under 1 µM for the second.

`CCC1(O)CCn2nc(C(=O)N[C@H]3COc4ccc(C(F)(F)F)cc4C3F)cc2OC1` (stereo partly drawn) [Example 656] and `CC(C)OCCN1CCn2nc(C(=O)N[C@H]3COc4ccc(C(F)(F)F)cc4C3F)cc2C1` (stereo partly drawn) [Example 671] cannot be ordered by IC50: under 10 µM for the first, under 1 µM for the second.

`O=C(N[C@H]1COc2ccc(Cl)cc2C1)c1cn2c(n1)CC(CNCC(F)(F)F)CO2` (stereo partly drawn) [Example 548] and `Cc1ccc2c(c1)C[C@@H](NC(=O)c1cc3n(n1)CC(CCNCC(F)(F)F)O3)CO2` (single isomer, unassigned) [228 (isomer B)] cannot be ordered by IC50: under 10 µM for the first, under 10 µM for the second.

`O=C(N[C@H]1COc2ccc(COCC(F)(F)F)cc2C1)c1nn2c(c1-c1ccccn1)NCCC2` [Example 525] and `O=C(N[C@H]1COc2ccc(C(F)(F)F)cc2C1)c1nn2c(c1-c1cccc(Cl)n1)COCC2` [Example 485] cannot be ordered by IC50: under 10 µM for the first, under 1 µM for the second.

`O=C(NC1COc2ccc(Cl)cc2C1O)c1cc2n(n1)CCC(COCC1CC1)O2` (stereo not drawn) [Example 571] and `N#Cc1ccc2c(c1)C(F)[C@@H](NC(=O)c1cc3n(n1)CC(CCOCC1CC1)O3)CO2` (stereo partly drawn) [Example 650] cannot be ordered by IC50: under 10 µM for the first, under 1 µM for the second.

`COC(C)(C)C#Cc1ccc2c(c1)C[C@@H](NC(=O)c1cc3n(n1)CCC(C(F)(F)F)O3)CO2` (stereo partly drawn) [Example 398] and `N#Cc1ccc2c(c1)C[C@@H](NC(=O)c1cc3n(n1)CCC(CC(F)(F)F)O3)CO2` (stereo partly drawn) [Example 562] cannot be ordered by IC50: under 10 µM for the first, under 10 µM for the second.

`N#Cc1ccc2c(c1)C[C@@H](NC(=O)c1cc3n(n1)CCC(C1CCOCC1)O3)CO2` (stereo partly drawn) [Example 585] and `N#Cc1ccc2c(c1)C[C@@H](NC(=O)c1cc3n(n1)CCC(CSC(F)(F)F)O3)CO2` (single isomer, unassigned) [156 (isomer B)] cannot be ordered by IC50: under 10 µM for the first, under 10 µM for the second.

`N#Cc1ccc2c(c1)C[C@@H](NC(=O)c1cc3n(n1)CC(CCn1cc(C(F)(F)F)cn1)O3)CO2` (stereo partly drawn) [Example 455] and `CCN(CC1Cn2nc(C(=O)N[C@H]3COc4ccc(C#N)cc4C3)cc2O1)CC(F)(F)F` (stereo partly drawn) [Example 452] cannot be ordered by IC50: under 1 µM for the first, under 10 µM for the second.

`O=C(N[C@H]1COc2ccc(C(F)(F)F)cc2C1)c1cc2n(n1)CC(COCC1CC1)CO2` (stereo partly drawn) [Example 539] and `O=C(N[C@H]1COc2ccc(C(F)(F)F)cc2C1)c1cc2n(n1)CCC(C1COCCO1)O2` (stereo partly drawn) [Example 620] cannot be ordered by IC50: under 10 µM for the first, under 1 µM for the second.

`CN(C1CCc2nc(C(=O)N[C@H]3COc4ccccc4C3)cn2C1)S(=O)(=O)c1ccccc1` (stereo partly drawn) [Example 322] and `O=C(N[C@H]1COc2ccccc2C1)c1nc2n(c1CCCO)CC(C(F)(F)F)CC2` (stereo partly drawn) [Example 301] cannot be ordered by IC50: under 10 µM for the first, under 10 µM for the second.

`COC1c2cc(C(F)(F)F)ccc2OC[C@@H]1NC(=O)c1cc2n(n1)CCC(COCC(F)(F)F)O2` (stereo partly drawn) [Example 570] and `O=C(N[C@H]1COc2ccc(C(F)(F)F)cc2C1F)c1cc2n(n1)CCC(COCCOCC(F)(F)F)O2` (stereo partly drawn) [Example 665] cannot be ordered by IC50: under 1 µM for the first, under 1 µM for the second.

`O=C(N[C@H]1COc2ccc(C(F)(F)F)cc2C1O)c1cc2n(n1)CC(CCOCC(F)(F)F)O2` (stereo partly drawn) [Example 589] and `O=C(N[C@H]1COc2ccc(C(F)(F)F)cc2C1O)c1cc2n(n1)CC(CCCOCC(F)(F)F)O2` (stereo partly drawn) [Example 592] cannot be ordered by IC50: under 10 µM for the first, under 10 µM for the second.

`O=C(N[C@H]1COc2ccc(Cl)cc2C1)c1cc2n(n1)CCN(CCOc1ccccn1)C2` [Example 274] and `CC(C)(c1ccccn1)N1CCn2nc(C(=O)N[C@H]3COc4ccc(C#N)cc4C3)cc2C1` [Example 501] cannot be ordered by IC50: under 10 µM for the first, under 10 µM for the second.

`O=C(c1cn2c(n1)CCC(c1cccc(N3CCCC3)n1)C2)N1CCC(c2ccccc2)C1` (stereo not drawn) [Example 310] and `O=C(N[C@H]1COc2ccc(CN3CCOCC3)cc2C1)c1cc2n(n1)CCC(c1ccccc1F)O2` (stereo partly drawn) [Example 368] cannot be ordered by IC50: under 10 µM for the first, under 10 µM for the second.

`O=C(NC1COc2ccc3ncccc3c2C1)c1cc2n(n1)CCC(c1ccccc1F)O2` (stereo not drawn) [Example 363] and `O=C(N[C@H]1COc2ccc(Cl)cc2C1)c1cc2n(n1)CCC(CF)O2` (stereo partly drawn) [Example 381] cannot be ordered by IC50: under 10 µM for the first, under 10 µM for the second.

`O=C(N[C@H]1COc2ccc(C(F)(F)F)cc2C1)c1cc2n(n1)CCC(CCOC(F)F)O2` (stereo partly drawn) [Example 433] and `O=C(N[C@H]1COc2ccc(CCOC(F)F)cc2C1)c1cc2n(n1)CC(CCOC(F)F)O2` (stereo partly drawn) [Example 216] cannot be ordered by IC50: under 1 µM for the first, under 1 µM for the second.

`O=C(N[C@H]1COc2ccc(C(F)(F)F)cc2C1)c1nc2n(c1-c1cccnc1OCC(F)(F)F)CCOC2` [Example 346] and `O=C(N[C@H]1COc2ccc(C(F)(F)F)cc2C1)c1nn2c(c1-c1ccn[nH]1)OCC2` [Example 249] cannot be ordered by IC50: under 10 µM for the first, under 10 µM for the second.

`CCc1cccc(-c2c(C(=O)N[C@H]3COc4ccc(C(F)(F)F)cc4C3O)nn3c2COCC3)n1` (stereo partly drawn) [Example 581] and `O=C(N[C@H]1COc2ccc(C(F)(F)F)cc2C1O)c1cc2n(n1)CC(CCCOCC(F)F)O2` (single isomer, unassigned) [610 (isomer B)] cannot be ordered by IC50: under 1 µM for the first, under 10 µM for the second.

`CC1(COCC2CC2)Cn2nc(C(=O)N[C@H]3COc4ccc(CC(F)F)cc4C3)cc2O1` (stereo partly drawn) [Example 619] and `N#Cc1ccc2c(c1)C[C@@H](NC(=O)c1cc3n(n1)CC(CCCOCC(F)F)O3)CO2` (single isomer, unassigned) [604 (isomer B)] cannot be ordered by IC50: under 10 µM for the first, under 10 µM for the second.

`COc1cccc(-c2c(C(=O)N[C@H]3COc4ccc(Cl)cc4C3)nn3c2CCCC3)n1` [Example 348] and `CCOC(F)C1CCn2nc(C(=O)N[C@H]3COc4ccc(Cl)cc4C3)cc2O1` (stereo partly drawn) [Example 409] cannot be ordered by IC50: under 1 µM for the first, under 1 µM for the second.

`O=C(N[C@H]1COc2ccc(C(F)(F)F)cc2C1O)c1cc2n(n1)CC(CCCOCC(F)(F)F)O2` (stereo partly drawn) [Example 591] and `O=C(N[C@H]1COc2ccc(C(F)(F)F)cc2C1F)c1cc2n(n1)CCN(CC1CCOC1)C2` (stereo partly drawn) [Example 673] cannot be ordered by IC50: under 1 µM for the first, under 1 µM for the second.
